Measured values from ChEMBL document CHEMBL3044679, “Synthesis and biological evaluation of some stilbene derivatives” (Med Chem Res, 2011).
Converted amounts (≈) assume the structure as drawn.

What was measured:
Assay type in all cases: functional, cell-based
MOLT-4 = assay: Cytostatic activity against Homo sapiens (human) Molt4/C8 cells after 72 hr by coulter counter analysis; settings: MOLT-4, 72 h
CCRF-CEM = assay: Cytostatic activity against Homo sapiens (human) CEM cells after 72 hr by coulter counter analysis
L1210 = assay: Cytostatic activity against Mus musculus (mouse) L1210 cells after 48 hr by coulter counter analysis; settings: L1210, 48 h

O=C(O)/C(=C/c1ccccc1Cl)c1ccccc1
IC50 (MOLT-4): 37 µg/mL (≈ 143 µM) | IC50 (CCRF-CEM): 93 µg/mL (≈ 359 µM) | IC50 (L1210): 76 µg/mL (≈ 294 µM)

O=C(O)/C(=C/c1ccccc1F)c1ccccc1
IC50 (MOLT-4): 89 µg/mL (≈ 367 µM) | IC50 (CCRF-CEM): > 200 µg/mL | IC50 (L1210): > 200 µg/mL

CNC(=O)/C(=C/c1ccccc1Cl)c1ccccc1
IC50 (MOLT-4): 77 µg/mL (≈ 283 µM) | IC50 (CCRF-CEM): 60 µg/mL (≈ 221 µM) | IC50 (L1210): 65 µg/mL (≈ 239 µM)

CNC(=O)/C(=C/c1ccc(OC)cc1)c1ccccc1
IC50 (MOLT-4): 166 µg/mL (≈ 621 µM) | IC50 (CCRF-CEM): 128 µg/mL (≈ 479 µM) | IC50 (L1210): 68 µg/mL (≈ 254 µM)

CCN(CC)C(=O)/C(=C/c1ccccc1Cl)c1ccccc1
IC50 (MOLT-4): 14 µg/mL (≈ 44.6 µM) | IC50 (CCRF-CEM): 18 µg/mL (≈ 57.4 µM) | IC50 (L1210): 24 µg/mL (≈ 76.5 µM)

CCNC(=O)/C(=C/c1ccccc1)c1ccccc1
IC50 (MOLT-4): 112 µg/mL (≈ 446 µM) | IC50 (CCRF-CEM): 26 µg/mL (≈ 103 µM) | IC50 (L1210): 132 µg/mL (≈ 525 µM)

CCNC(=O)/C(=C/c1ccc(OC)cc1)c1ccccc1
IC50 (MOLT-4): 150 µg/mL (≈ 533 µM) | IC50 (CCRF-CEM): 116 µg/mL (≈ 412 µM) | IC50 (L1210): 148 µg/mL (≈ 526 µM)

CNC(=O)/C(=C/c1ccccc1F)c1ccccc1
IC50 (MOLT-4): 72 µg/mL (≈ 282 µM) | IC50 (CCRF-CEM): 89 µg/mL (≈ 349 µM) | IC50 (L1210): 85 µg/mL (≈ 333 µM)

CNC(=O)/C(=C/c1ccccc1O)c1ccccc1
IC50 (MOLT-4): > 200 µg/mL | IC50 (CCRF-CEM): > 200 µg/mL | IC50 (L1210): > 200 µg/mL

COC(=O)/C(=C/c1ccccc1Cl)c1ccccc1
IC50 (MOLT-4): 16 µg/mL (≈ 58.7 µM) | IC50 (CCRF-CEM): 19 µg/mL (≈ 69.7 µM) | IC50 (L1210): 25 µg/mL (≈ 91.7 µM)

COC(=O)/C(=C/c1ccc(OC)cc1)c1ccccc1
IC50 (MOLT-4): 71 µg/mL (≈ 265 µM) | IC50 (CCRF-CEM): 71 µg/mL (≈ 265 µM) | IC50 (L1210): 66 µg/mL (≈ 246 µM)

Fc1ccc(/N=C/c2ccccc2Cl)cc1Cl
IC50 (MOLT-4): 3.9 µg/mL (≈ 14.5 µM) | IC50 (CCRF-CEM): 10 µg/mL (≈ 37.3 µM) | IC50 (L1210): 6.4 µg/mL (≈ 23.9 µM)

Fc1ccc(/N=C/c2ccccc2Cl)cc1
IC50 (MOLT-4): 0.77 µg/mL (≈ 3.3 µM) | IC50 (CCRF-CEM): 2.1 µg/mL (≈ 8.99 µM) | IC50 (L1210): 6 µg/mL (≈ 25.7 µM)

Clc1ccccc1/C=N/c1ccc(Br)cc1
IC50 (MOLT-4): 1.5 µg/mL (≈ 5.09 µM) | IC50 (CCRF-CEM): 4.5 µg/mL (≈ 15.3 µM) | IC50 (L1210): 2.1 µg/mL (≈ 7.13 µM)

Fc1ccc(/N=C/c2cccs2)cc1Cl
IC50 (MOLT-4): 16 µg/mL (≈ 66.7 µM) | IC50 (CCRF-CEM): 25 µg/mL (≈ 104 µM) | IC50 (L1210): 3.2 µg/mL (≈ 13.3 µM)

COc1ccc(/C=C/c2ccc(F)cc2)cc1
IC50 (MOLT-4): > 200 µg/mL | IC50 (CCRF-CEM): 156 µg/mL (≈ 683 µM) | IC50 (L1210): 26 µg/mL (≈ 114 µM)

Fc1ccc(/C=C/c2ccccc2F)cc1
IC50 (MOLT-4): 61 µg/mL (≈ 282 µM) | IC50 (CCRF-CEM): 83 µg/mL (≈ 384 µM) | IC50 (L1210): 62 µg/mL (≈ 287 µM)

Cc1ccc(/C=C/c2ccccc2F)cc1
IC50 (MOLT-4): 30 µg/mL (≈ 141 µM) | IC50 (CCRF-CEM): 78 µg/mL (≈ 367 µM) | IC50 (L1210): 72 µg/mL (≈ 339 µM)

Fc1ccc(/C=C/c2ccccc2)cc1
IC50 (MOLT-4): > 200 µg/mL | IC50 (CCRF-CEM): > 200 µg/mL | IC50 (L1210): > 200 µg/mL

COc1ccc(/C=C/c2ccc(C)cc2)cc1
IC50 (MOLT-4): > 200 µg/mL | IC50 (CCRF-CEM): > 200 µg/mL | IC50 (L1210): > 200 µg/mL

O=C(O)/C(=C/c1ccccc1O)c1ccccc1
IC50 (MOLT-4): > 200 µg/mL | IC50 (CCRF-CEM): > 200 µg/mL | IC50 (L1210): > 200 µg/mL

Cc1ccc(/C=C/c2ccc(N(C)C)cc2)cc1
IC50 (MOLT-4): > 200 µg/mL | IC50 (CCRF-CEM): > 200 µg/mL | IC50 (L1210): 143 µg/mL (≈ 602 µM)

N[C@@H](Cc1ccc(N(CCCl)CCCl)cc1)C(=O)O [MELPHALAN]
IC50 (MOLT-4): 3.2 µg/mL (≈ 10.5 µM) | IC50 (CCRF-CEM): 2.5 µg/mL (≈ 8.19 µM) | IC50 (L1210): 2.1 µg/mL (≈ 6.88 µM)
